Drawing on ChEMBL document CHEMBL3826978, “Design, synthesis and biological evaluation of novel chiral oxazino-indoles as potential and selective neuroprotective agents against Aβ25-35-induced neuronal damage” (Bioorg Med Chem Lett, 2016), this text covers Activity and viability for 36 compounds.

The source made the active and inactive calls. No cut-off for these calls is given here.

Data set [1] deals with SH-SY5Y. Put plainly: Neuroprotective activity against amyloid beta(25 to 35)-induced neurotoxicity in human SH-SY5Y cells assessed as cell viability at 10 uM (reference value: 62.1 +/- 2.2%). It counts as functional. As to conditions: for viability at 10 µM: read-out: Activity.
The subject of data set [2] is SH-SY5Y. Put plainly: Neuroprotective activity against H2O2-induced neurotoxicity in human SH-SY5Y cells. It counts as functional, cell-based.
The subject of data set [3] is SH-SY5Y. Put plainly: Neuroprotective activity against oxygen glucose deprivation-induced neurotoxicity in human SH-SY5Y cells. It counts as functional, cell-based.
In data set [4] the test system is SH-SY5Y. Put plainly: Cytotoxicity against human SH-SY5Y cells assessed as cell viability by MTT assay. Type of data set: cell-based.
The test system of data set [5] is SH-SY5Y. The data set is described as follows: Cytotoxicity against human SH-SY5Y cells assessed as cell proliferation by SRB assay. Type of data set: cell-based.
For data set [6], the system named is SH-SY5Y. Put plainly: Neuroprotective activity against amyloid beta(25 to 35)-induced neurotoxicity in human SH-SY5Y cells assessed as cell viability at 10 uM by SRB assay. It counts as functional, cell-based. (In general: In SRB staining, fixed cells bind dye roughly in proportion to their protein.)

On to `Cc1ccc([C@H]2O[C@@H](C)Cn3c2c(C)c2ccccc23)cc1`, for which the result with SH-SY5Y [1], in the data set on SH-SY5Y [2] and with SH-SY5Y [3] was inactive.
For the compound `Cc1cc(C)cc([C@@H]2O[C@@H](C)Cn3c2c(C)c2ccccc23)c1`, the viability at 10 µM in the data set with SH-SY5Y [1] was 87.1%. In addition, the outcome in the data set on SH-SY5Y [2] and in the data set on SH-SY5Y [3] was inactive.
In the case of `COc1cccc([C@H]2O[C@@H](C)Cn3c2c(C)c2ccccc23)c1`, the result with SH-SY5Y [1], in the data set with SH-SY5Y [2] and with SH-SY5Y [3] was inactive.
Regarding `COc1cc([C@@H]2O[C@@H](C)Cn3c2c(C)c2ccccc23)cc(OC)c1OC`, the outcome in the data set with SH-SY5Y [1], with SH-SY5Y [2] and in the data set with SH-SY5Y [3] was inactive.
`Cc1c2n(c3ccccc13)C[C@H](C)O[C@H]2c1ccc(Cl)cc1`: the result in the data set on SH-SY5Y [1], in the data set on SH-SY5Y [2] and in the data set on SH-SY5Y [3] was inactive.
In the case of `Cc1c2n(c3ccccc13)C[C@H](C)O[C@@H]2c1ccc(F)cc1`, the outcome in the data set with SH-SY5Y [1], with SH-SY5Y [2] and in the data set with SH-SY5Y [3] was inactive.
For `Cc1c2n(c3ccccc13)C[C@H](C)O[C@H]2c1ccc(C(F)(F)F)cc1`, the outcome in the data set on SH-SY5Y [1], in the data set on SH-SY5Y [2] and in the data set on SH-SY5Y [3] was inactive.
Take `COc1ccccc1[C@@H]1O[C@@H](C)Cn2c1c(C)c1ccccc12`: the viability at 10 µM in the data set on SH-SY5Y [1] came out at 77.7%. In addition, the result in the data set on SH-SY5Y [2] and in the data set on SH-SY5Y [3] was inactive.
For the compound `Cc1ccc([C@@H]2O[C@@H](C)Cn3c2c(C)c2ccccc23)cc1`, the outcome in the data set with SH-SY5Y [1], in the data set on SH-SY5Y [2] and in the data set on SH-SY5Y [3] was inactive.
With `Cc1c2n(c3ccccc13)C[C@H](C)O[C@H]2c1ccc(F)cc1`, the result in the data set with SH-SY5Y [1], in the data set on SH-SY5Y [2] and in the data set on SH-SY5Y [3] was inactive.
In the case of `O=C(O[C@@H]1Cc2c(O)cc(O)cc2O[C@@H]1c1cc(O)c(O)c(O)c1)c1cc(O)c(O)c(O)c1` [EPIGALOCATECHIN GALLATE], the viability at 10 µM in the data set with SH-SY5Y [1] was 98.6%.
Consider `Cc1c2n(c3ccccc13)C[C@H](C)O[C@@H]2c1ccc(CC(C)C)cc1`, for which the viability at 10 µM in the data set with SH-SY5Y [1] is 108%. Besides, the result with SH-SY5Y [2] and with SH-SY5Y [3] was inactive. For the same compound, the Activity entry in the data set on SH-SY5Y [4] and in the data set with SH-SY5Y [5] was “Non-toxic” each time. For the same compound, in the data set on SH-SY5Y [6], the result was Active.
For the compound `Cc1ccccc1[C@H]1O[C@@H](C)Cn2c1c(C)c1ccccc12`, the result in the data set on SH-SY5Y [1], with SH-SY5Y [2] and with SH-SY5Y [3] was inactive.
Turning to `Cc1c2n(c3ccccc13)C[C@@H](C)O[C@@H]2c1ccccc1`, the result in the data set on SH-SY5Y [1], in the data set with SH-SY5Y [2] and in the data set with SH-SY5Y [3] was inactive.
Take `Cc1cccc([C@H]2O[C@@H](C)Cn3c2c(C)c2ccccc23)c1`: the outcome with SH-SY5Y [1], in the data set on SH-SY5Y [2] and in the data set with SH-SY5Y [3] was inactive.
As for `COc1cccc([C@@H]2O[C@@H](C)Cn3c2c(C)c2ccccc23)c1`, the outcome with SH-SY5Y [1], with SH-SY5Y [2] and in the data set on SH-SY5Y [3] was inactive.
Regarding `Cc1c2n(c3ccccc13)C[C@H](C)O[C@H]2c1ccccc1`, the outcome in the data set on SH-SY5Y [1], in the data set on SH-SY5Y [2] and in the data set with SH-SY5Y [3] was inactive.
As for `Cc1c2n(c3ccccc13)C[C@H](C)O[C@H]2c1cccs1`, the result in the data set with SH-SY5Y [1], in the data set with SH-SY5Y [2] and in the data set on SH-SY5Y [3] was inactive.
`Cc1c2n(c3ccccc13)C[C@H](C)O[C@@H]2c1cccs1`: the outcome with SH-SY5Y [1], in the data set with SH-SY5Y [2] and in the data set with SH-SY5Y [3] was inactive.
Take `Cc1c2n(c3ccccc13)C[C@@H](C)O[C@@H]2c1ccc(F)cc1`: the result in the data set with SH-SY5Y [1], in the data set with SH-SY5Y [2] and with SH-SY5Y [3] was inactive.
Take `Cc1cccc([C@@H]2O[C@@H](C)Cn3c2c(C)c2ccccc23)c1`: the outcome with SH-SY5Y [1], in the data set on SH-SY5Y [2] and in the data set with SH-SY5Y [3] was inactive.
`Cc1cc(C)cc([C@H]2O[C@@H](C)Cn3c2c(C)c2ccccc23)c1`: the result with SH-SY5Y [1], in the data set on SH-SY5Y [2] and in the data set with SH-SY5Y [3] was inactive.
Take `Cc1c2n(c3ccccc13)C[C@H](C)O[C@@H]2c1coc2ccccc2c1=O`: the outcome with SH-SY5Y [1], in the data set on SH-SY5Y [2] and with SH-SY5Y [3] was inactive.
Consider `COc1ccccc1[C@H]1O[C@@H](C)Cn2c1c(C)c1ccccc12`, for which the result with SH-SY5Y [1], in the data set with SH-SY5Y [2] and in the data set with SH-SY5Y [3] was inactive.
`CCc1ccc([C@H]2O[C@@H](C)Cn3c2c(C)c2ccccc23)cc1`: the viability at 10 µM with SH-SY5Y [1] turned out to be 93%. The result in the data set with SH-SY5Y [2] and with SH-SY5Y [3] was inactive. In addition, the Activity result in the data set with SH-SY5Y [4] and in the data set on SH-SY5Y [5] was “Non-toxic” in each case. The result with SH-SY5Y [6] was Active.
Regarding `Cc1c2n(c3ccccc13)C[C@H](C)O[C@@H]2c1ccc(Cl)cc1`, the viability at 10 µM in the data set on SH-SY5Y [1] amounted to 74.4%. In addition, the result with SH-SY5Y [2] and with SH-SY5Y [3] was inactive.
For the compound `COc1cc([C@H]2O[C@@H](C)Cn3c2c(C)c2ccccc23)cc(OC)c1OC`, the result in the data set with SH-SY5Y [1], in the data set on SH-SY5Y [2] and in the data set on SH-SY5Y [3] was inactive.
Turning to `Cc1c2n(c3ccccc13)C[C@@H](C)O[C@H]2c1ccc(F)cc1`, the viability at 10 µM with SH-SY5Y [1] amounted to 90.6%. Further, the outcome in the data set with SH-SY5Y [2] and in the data set with SH-SY5Y [3] was inactive. Moreover, the Activity entry in the data set on SH-SY5Y [4] and in the data set with SH-SY5Y [5] was “Non-toxic” throughout. For the same compound, the result in the data set with SH-SY5Y [6] was Active.
With `Cc1ccccc1[C@@H]1O[C@@H](C)Cn2c1c(C)c1ccccc12`, the result in the data set on SH-SY5Y [1], in the data set on SH-SY5Y [2] and in the data set on SH-SY5Y [3] was inactive.
With `Cc1c2n(c3ccccc13)C[C@H](C)O[C@@H]2c1ccccc1`, the result in the data set with SH-SY5Y [1], with SH-SY5Y [2] and in the data set with SH-SY5Y [3] was inactive.
As for `CCc1ccc([C@@H]2O[C@@H](C)Cn3c2c(C)c2ccccc23)cc1`, the result in the data set with SH-SY5Y [1], with SH-SY5Y [2] and in the data set with SH-SY5Y [3] was inactive.
As to `Cc1c2n(c3ccccc13)C[C@H](C)O[C@H]2c1ccc(CC(C)C)cc1`, the viability at 10 µM in the data set with SH-SY5Y [1] came to 96.2%. Also, the result with SH-SY5Y [2] and in the data set with SH-SY5Y [3] was inactive. The Activity result in the data set with SH-SY5Y [4] and with SH-SY5Y [5] was “Non-toxic” in each case. For the same compound, the result in the data set with SH-SY5Y [6] was Active.
Regarding `Cc1c2n(c3ccccc13)C[C@@H](C)O[C@H]2c1ccccc1`, the result in the data set on SH-SY5Y [1], in the data set on SH-SY5Y [2] and in the data set on SH-SY5Y [3] was inactive.
On to `Cc1c2n(c3ccccc13)C[C@H](C)O[C@H]2c1ccc(C(C)(C)C)cc1`, for which, in the data set with SH-SY5Y [1], the viability at 10 µM came out at 92.1%. In addition, the outcome in the data set with SH-SY5Y [2] and in the data set with SH-SY5Y [3] was inactive. Moreover, the Activity result with SH-SY5Y [4] and with SH-SY5Y [5] was “Non-toxic” in each case. Moreover, the result with SH-SY5Y [6] was Active.
Regarding `Cc1c2n(c3ccccc13)C[C@H](C)O[C@@H]2c1ccc(C(F)(F)F)cc1`, the outcome in the data set on SH-SY5Y [1], in the data set with SH-SY5Y [2] and in the data set with SH-SY5Y [3] was inactive.
For the compound `Cc1c2n(c3ccccc13)C[C@H](C)O[C@@H]2c1ccc(C(C)(C)C)cc1`, the viability at 10 µM with SH-SY5Y [1] amounted to 84.5%. For the same compound, the result in the data set on SH-SY5Y [2] and with SH-SY5Y [3] was inactive.
